This passage reports TGI and GI50 results from PubChem BioAssay (NCI).

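Growth conditions: 96-well plates. Treatment: test compound, 48 hours, 5 concentrations. Analysis: linear interpolation between bracketing concentrations; unreached endpoints set to highest concentration. At the GI50, growth is halved. TGI: total growth inhibition.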

What all share (experiment): growth of human tumour cells (NCI), 48 h
The test system of assay [1] is HCT-15 colon.
Assay [2] relates to NCI-H460 lung.
In assay [3] the test system is A549 NSCLC.
Assay [4] relates to SF-539 CNS.
In assay [5] the test system is HOP-62 NSCLC.
Assay [6] relates to KM12 colon.
In assay [7] the test system is SK-OV-3 ovarian.
Assay [8] concerns SK-MEL-28 melanoma.
For assay [9], the system named is HL-60(TB) leukemia.
Assay [10] relates to A498 renal.

For the molecule `O=C(CCCCCCCCC(=O)OCC1OC(n2cnc3c(=O)[nH]cnc32)C(O)C1O)OCC1OC(n2cnc3c(=O)[nH]cnc32)C(O)C1O` (centres undefined), the TGI in assay [1], in assay [2], in assay [3], in assay [4], in assay [5] and in [6] was more than 100 µM each time. Moreover, the TGI in assay [7], in assay [8], in [9] and in assay [10] was more than 100 µM in each case.

In the case of `Cc1ccc(NC(=O)CCC(=O)C2CC(=O)CC/C2=N\NC(=O)c2cc3ccccc3cc2O)cc1C` (centres undefined), the TGI in assay [1] is more than 100 µM; in [2] it was more than 100 µM; in assay [3], more than 100 µM; in assay [4] it was 87.3 µM; in assay [5], more than 100 µM; in assay [6], more than 100 µM. Further, the TGI in assay [7] is more than 100 µM; in assay [8], more than 100 µM; in [9] it was 29.9 µM; in assay [10] it was more than 100 µM.

On to `CCCCCCCCCCCCCCCC[N+]1(CC)CCCC1`, for which the GI50 in assay [1] was 1.35 µM; in assay [2], 0.437 µM; in assay [3], 1.07 µM; in assay [4], 0.683 µM; in assay [5], 1.03 µM; in [6] it was 0.73 µM. The GI50 in [7] was 1.02 µM; in assay [8], 1.18 µM; in [9], 0.339 µM; in assay [10], 0.397 µM. Also, the TGI in assay [1] amounted to 5.49 µM; in [2], 1.62 µM; in [3], 2.59 µM; in assay [4] it was 1.98 µM; in assay [5], 2.52 µM; in assay [6], 2.04 µM. Besides, the TGI in assay [7] came to 3.05 µM; in assay [8], 2.81 µM; in [9], 1.14 µM; in assay [10], 2.94 µM.

In the case of `c1ccc(SCCCC(Sc2ccccc2)Sc2ccccc2)cc1`, the TGI in [1], in assay [2], in assay [3], in assay [4], in assay [5] and in [6] was more than 100 µM each time. Besides, the TGI in assay [7], in assay [8], in [9] and in assay [10] was more than 100 µM in each case.

Take `O=C1C=C(Nc2cccc(Br)c2)c2ccccc2C1=O`: the GI50 in assay [1] was 1.33 µM; in assay [2], 0.402 µM; in assay [3], 1.54 µM; in assay [4] it was 1.93 µM; in [5], 2.29 µM; in [6] it was 4.13 µM. In addition, the GI50 in [7] was 6.42 µM; in [8], 8.76 µM; in assay [9], 9.56 µM; in assay [10], 4.06 µM. Further, the TGI is more than 100 µM in assay [1]; 25.7 µM in [2]; 12.3 µM in assay [3]; 4.56 µM in [4]; 26.1 µM in assay [5]; more than 100 µM in assay [6]. The TGI in assay [7] turned out to be 30 µM; in assay [8], 61.4 µM; in assay [9] it was 34.5 µM; in [10], 27.2 µM.

Turning to `Cc1nnc2n1N=C(CC(=O)c1ccc(O)cc1O)CN2N`, the TGI is 29.7 µM in assay [1]; more than 100 µM in [2]; more than 100 µM in [3]; more than 100 µM in assay [4]; more than 100 µM in assay [5]; more than 100 µM in assay [6]. Moreover, the TGI in [7], in assay [8], in assay [9] and in [10] was more than 100 µM throughout.

For `O=C(O)c1cc(Cl)cc(NC(=O)C(Cl)Cl)c1Cl`, the TGI in [1], in assay [2], in [3], in assay [4], in assay [5] and in assay [6] was more than 100 µM throughout. The TGI in [7], in assay [8], in [9] and in assay [10] was more than 100 µM throughout.

Turning to `N#CC1c2ccccc2-c2ccccc2N1C(=O)c1ccccc1` (centres undefined), the GI50 in assay [1] was 1.38 µM; in assay [2] it was 3.06 µM; in assay [3], 2.97 µM; in [4], 2.29 µM; in assay [5] it was 4.46 µM; in assay [6] it was 1.16 µM. The GI50 is 4.36 µM in assay [7], 1.75 µM in assay [8], 0.337 µM in [9] and 1.32 µM in assay [10]. Also, the TGI in assay [1] is more than 100 µM; in assay [2], 10.9 µM; in assay [3] it was more than 38.8 µM; in assay [4] it was 7.05 µM; in assay [5], more than 100 µM; in [6], 4.17 µM. The results for the TGI in assay [7], in assay [8] and in [10] were more than 45.2 µM, more than 100 µM and 5.55 µM, respectively.

Consider `O=C(N[C@@H]1CCCc2ccccc21)[C@H](CCC(=O)N1CCN(C2CCCCC2)CC1)N1C(=O)[C@@H](N2C(=O)OC[C@@H]2c2ccccc2)[C@H]1/C=C/c1ccccc1`, for which the GI50 in assay [1] is 2.97 µM; in assay [2] it was 2.65 µM; in [3], 2.6 µM; in assay [4] it was 1.74 µM; in assay [5], 3.87 µM; in [6], 2.62 µM. For the same molecule, the GI50 was 3.02 µM in [7], 1.77 µM in assay [8], 2.1 µM in assay [9] and 1.76 µM in [10]. Besides, the TGI was determined as 12.3 µM in assay [1]; 7.23 µM in [2]; 14.8 µM in assay [3]; 3.42 µM in assay [4]; 17.4 µM in assay [5]; 11.6 µM in assay [6]. Besides, the TGI in assay [7] came out at 14 µM; in [8], 3.67 µM; in [9], 5.71 µM; in assay [10], 5.3 µM.

As for `c1ccc2c(c1)nc(NCCN1CCNCC1)c1c3ccccc3[nH]c21`, the GI50 in assay [1] was 0.176 µM; in assay [2], 0.221 µM; in assay [3], 0.206 µM; in assay [4], 0.616 µM; in assay [5], 0.404 µM; in assay [6] it was 0.369 µM. Besides, the GI50 in assay [7] was 2.16 µM; in assay [8], 1.37 µM; in assay [9], 0.308 µM; in assay [10], 1.56 µM. The TGI came out at 0.7 µM in assay [1]; 1.14 µM in assay [2]; 1.21 µM in [3]; 2.2 µM in assay [4]; 2.2 µM in [5]; 2.56 µM in [6]. Besides, the TGI in [7] amounted to 8.53 µM; in [8], 2.8 µM; in [9], 1.36 µM; in assay [10], 3.27 µM.

For `Cc1ccc(NCSc2ccc(Cl)cc2)cc1`, the GI50 in assay [1] is more than 100 µM; in assay [2], more than 100 µM; in assay [3], 9.8 µM; in assay [4], 22.9 µM; in assay [5] it was 30.7 µM; in assay [6] it was 9.91 µM. For the same molecule, the GI50 in assay [7] is 67 µM; in assay [8] it was more than 100 µM; in [9], 2.45 µM; in assay [10], 18.8 µM. Moreover, the TGI in [1], in assay [2], in assay [3], in [4], in assay [5] and in assay [6] was more than 100 µM each time. Besides, the TGI in assay [7], in assay [8], in assay [9] and in [10] was more than 100 µM in each case.

`O=C1OC(c2ccc(O)cc2)(c2ccc(O)cc2)c2cccc3cccc1c23`: the GI50 in assay [1] is 13.6 µM; in [2], 17.9 µM; in assay [3] it was 14.4 µM; in assay [4], 15.2 µM; in assay [5], 17.3 µM; in [6], 10.5 µM. Further, the GI50 in [7] was 18.8 µM; in assay [8] it was 14.3 µM; in assay [9] it was 18 µM; in assay [10], 0.488 µM. The TGI was determined as 34.3 µM in [1]; 39.6 µM in [2]; 36.2 µM in assay [3]; 29 µM in [4]; 38.1 µM in [5]; 25.2 µM in [6]. Moreover, the TGI came to 33.1 µM in assay [7], 29.5 µM in [8], 45.5 µM in assay [9] and 15.3 µM in assay [10].

As for `Oc1cccc(-c2nc3ccccc3s2)c1`, the TGI was more than 100 µM in [1]; more than 100 µM in [2]; more than 100 µM in assay [3]; more than 100 µM in [4]; more than 100 µM in assay [5]; 48.6 µM in assay [6]. The TGI in assay [7], in [8], in assay [9] and in [10] was more than 100 µM throughout.

Consider `Cc1ccc(C2=Nc3c(N)ncnc3NC(c3cccc(Nc4ccnc5cc(C(F)(F)F)ccc45)c3)C2)cc1` (centres undefined), for which the GI50 in assay [1] was 2.82 µM; in assay [2], 3.07 µM; in assay [3], 3.63 µM; in assay [4] it was 2.68 µM; in [5], 5.38 µM; in assay [6], 3.26 µM. The GI50 was 5.93 µM in assay [7], 3.81 µM in assay [8], 2.95 µM in [9] and 1.76 µM in assay [10]. Moreover, the TGI in assay [1] amounted to 16.5 µM; in assay [2], 10.5 µM; in [3], 13.2 µM; in assay [4], 9.26 µM; in [5], 52.1 µM; in assay [6], 13.3 µM. Also, the TGI in assay [7] was found to be 51 µM; in assay [8], 31.4 µM; in [9] it was 74.7 µM; in assay [10], 6.81 µM.

On to `CC(C)OP(=O)(CP(=O)(OC(C)C)OC(C)C)OC(C)C.[CH3][Sn]([Br])([Br])[Br]`, for which the GI50 in assay [1], in [2], in assay [3], in assay [4], in assay [5] and in [6] was more than 100 µM in each case. Also, the GI50 in [7], in assay [8], in [9] and in assay [10] was more than 100 µM each time. Besides, the TGI in assay [1], in assay [2], in assay [3], in assay [4], in [5] and in assay [6] was more than 100 µM throughout. For the same molecule, the TGI in assay [7], in assay [8], in assay [9] and in assay [10] was more than 100 µM throughout.

In the case of `COc1ccc(C[C@H]2C[C@@H](O)[C@@H](C)C/C=C/Cc3cccc(O)c3C(=O)O2)cn1`, the GI50 was 28.9 µM in assay [1]; 22.7 µM in [2]; 28.6 µM in assay [3]; 17.9 µM in [4]; 18.6 µM in assay [5]; 23.5 µM in assay [6]. The GI50 in assay [7] was 45.6 µM; in [8], 27.2 µM; in assay [9], 15.3 µM; in assay [10], 0.712 µM. The TGI in assay [1] was 88.8 µM; in [2], 96.3 µM; in [3] it was more than 100 µM; in [4] it was 37.8 µM; in assay [5], 40.2 µM; in assay [6], 62.4 µM. The TGI in assay [7] was more than 100 µM; in assay [8], 78.7 µM; in [9], 38.4 µM; in assay [10], 31.4 µM.

`Nc1ncnc2occ(-c3ccc(NC(=O)Nc4cc(C(F)(F)F)cc(C(F)(F)F)c4)cc3)c12`: the GI50 in assay [1] is 2.98 µM; in assay [2], 3.1 µM; in assay [3], 3 µM; in assay [4] it was 1.06 µM; in assay [5], 3.66 µM; in [6], 0.0916 µM. The GI50 in assay [7] is 3.37 µM; in [8] it was 4.24 µM; in [9], 4.13 µM; in [10], 0.144 µM. Besides, the TGI stood at 7.83 µM in [1]; 6.7 µM in assay [2]; 7.18 µM in [3]; 5.44 µM in [4]; 6.99 µM in assay [5]; 3.95 µM in assay [6]. Also, the TGI in assay [7] worked out at 6.67 µM; in assay [8], 7.77 µM; in [9], 12.9 µM; in [10], 1.62 µM.
